Article PMC6691788, “Design and synthesis of phthalazine-based compounds as potent anticancer agents with potential antiangiogenic activity via VEGFR-2 inhibition” (Journal of Enzyme Inhibition and Medicinal Chemistry, 2019)

Legend:
Test in all cases: NCI 60 cell panel SRB screen
Type in all cases: cell-based
[1] = system: MOLT-4; conditions: Homo sapiens; for activity at 10 µM: MOLT-4, single dose 10 μM, read-out: percent cell growth promotion
[2] = system: BT-549; conditions: Homo sapiens; for activity at 10 µM: BT-549, read-out: percent cell growth promotion
[3] = system: MDA-MB-435; conditions: Homo sapiens; for activity at 10 µM: MDA-MB-435, read-out: percent cell growth promotion
[4] = system: HCT-15; conditions: Homo sapiens; for activity at 10 µM: HCT-15, single dose 10 μM, read-out: percent cell growth promotion
[5] = system: NCI-H322M; conditions: Homo sapiens; for activity at 10 µM: single dose 10 μM, read-out: percent cell growth promotion
[6] = system: NCI-H522; conditions: Homo sapiens; for activity at 10 µM: NCI-H522, single dose 10 μM, read-out: percent cell growth promotion
[7] = system: MDA-MB-468; conditions: Homo sapiens; for activity at 10 µM: MDA-MB-468, MDA-MBA-468, single dose 10 μM, read-out: percent cell growth promotion
Method in brief: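 Cells in RPMI 1640 with 5% FBS, preincubated 24 h, then exposed to five concentrations for 48 h at 37 °C. TCA fixation, SRB staining, absorbance at 515 nm; a time-zero plate allows GI50 (50% reduction in net protein gain), TGI and LC50 (50% loss versus start).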

[8] = system: UO-31; conditions: Homo sapiens; for activity at 10 µM: UO-31, single dose 10 μM, read-out: percent cell growth promotion
[9] = system: HCC-2998; conditions: Homo sapiens; for activity at 10 µM: HCC-2998, single dose 10 μM, read-out: percent cell growth promotion
[10] = system: OVCAR-4; conditions: Homo sapiens; for activity at 10 µM: OVCAR-4, single dose 10 μM, read-out: percent cell growth promotion
[11] = system: HOP-92; conditions: Homo sapiens; for activity at 10 µM: HOP-92, single dose 10 μM, read-out: percent cell growth promotion
[12] = system: COLO 205; conditions: Homo sapiens; for activity at 10 µM: COLO 205, single dose 10 μM, read-out: percent cell growth promotion
[13] = system: HS 578T; conditions: Homo sapiens; for activity at 10 µM: read-out: percent cell growth promotion
[14] = system: KM12; conditions: Homo sapiens; for activity at 10 µM: KM12, single dose 10 μM, read-out: percent cell growth promotion
[15] = system: MDA-MB 231/ATCC; conditions: Homo sapiens; for activity at 10 µM: MDA-MB-231, read-out: percent cell growth promotion
[16] = system: LOX IMVI; conditions: Homo sapiens; for activity at 10 µM: read-out: percent cell growth promotion
[17] = system: HT29; conditions: Homo sapiens, HT-29; for activity at 10 µM: HT29, single dose 10 μM, read-out: percent cell growth promotion
[18] = system: MCF7; conditions: Homo sapiens; for activity at 10 µM: MCF7, read-out: percent cell growth promotion
[19] = 5 log dose, 48 h, read-out: LC50 (the source's name)

## Cc1nnc(Oc2ccc(NC(=O)Nc3ccc(Cl)cc3)cc2)c2ccccc12 [Compound 7e, 1–(4-Chlorophenyl)-3–(4-(4-methylphthalazin-1-yloxy)phenyl)urea]
[1]
  activity at 10 µM: 36.1%
[2]
  activity at 10 µM: 72%
[3]
  activity at 10 µM: 79.2%
[4]
  activity at 10 µM: 69.5%
[5]
  activity at 10 µM: 82.4%
[6]
  activity at 10 µM: 63.8%
[7]
  activity at 10 µM: 68.6%
[8]
  activity at 10 µM: 51.4%
[9]
  activity at 10 µM: 110%
[10]
  activity at 10 µM: 70.8%
[11]
  activity at 10 µM: 93.5%
[12]
  activity at 10 µM: 87.4%
[13]; Hs-578T
  activity at 10 µM: 76.4%
[14]
  activity at 10 µM: 57.7%
[15]
  activity at 10 µM: 52.9%
[16]
  activity at 10 µM: 78.1%
[17]
  activity at 10 µM: 77%
[18]
  activity at 10 µM: 72.7%

## CCOC(=O)N1CCN(c2nncc3ccccc23)CC1 [Compound 8a, Ethyl 4-(phthalazin-1-yl)piperazine-1-carboxylate]
[1]
  activity at 10 µM: 98.6%
[2]
  activity at 10 µM: 112%
[3]
  activity at 10 µM: 105%
[4]
  activity at 10 µM: 111%
[5]
  activity at 10 µM: 113%
[6]
  activity at 10 µM: 99.8%
[7]
  activity at 10 µM: 97.7%
[8]
  activity at 10 µM: 91.3%
[9]
  activity at 10 µM: 117%
[10]
  activity at 10 µM: 107%
[11]
  activity at 10 µM: 104%
[12]
  activity at 10 µM: 109%
[13]; Hs-578T
  activity at 10 µM: 113%
[14]
  activity at 10 µM: 104%
[15]
  activity at 10 µM: 108%
[16]
  activity at 10 µM: 98.7%
[17]
  activity at 10 µM: 106%
[18]
  activity at 10 µM: 103%

## c1ccc(N2CCN(c3nncc4ccccc34)CC2)nc1 [Compound 8d, 1–(4-(Pyridin-2-yl)piperazin-1-yl)phthalazine]
[1]
  activity at 10 µM: 106%
[2]
  activity at 10 µM: 104%
[3]
  activity at 10 µM: 104%
[4]
  activity at 10 µM: 108%
[5]
  activity at 10 µM: 114%
[6]
  activity at 10 µM: 99.4%
[7]
  activity at 10 µM: 93.3%
[8]
  activity at 10 µM: 96%
[9]
  activity at 10 µM: 117%
[10]
  activity at 10 µM: 109%
[11]
  activity at 10 µM: 102%
[12]
  activity at 10 µM: 106%
[13]; Hs-578T
  activity at 10 µM: 109%
[14]
  activity at 10 µM: 104%
[15]
  activity at 10 µM: 108%
[16]
  activity at 10 µM: 97.5%
[17]
  activity at 10 µM: 98.2%
[18]
  activity at 10 µM: 105%

## CCOC(=O)N1CCN(c2nnc(C)c3ccccc23)CC1 [Compound 8f, Ethyl 4–(4-methylphthalazin-1-yl)piperazine-1-carboxylate]
[1]
  activity at 10 µM: 109%
[2]
  activity at 10 µM: 66.7%
[3]
  activity at 10 µM: 97.4%
[4]
  activity at 10 µM: 98.6%
[5]
  activity at 10 µM: 101%
[6]
  activity at 10 µM: 93.8%
[7]
  activity at 10 µM: 104%
[8]
  activity at 10 µM: 92.2%
[9]
  activity at 10 µM: 99.8%
[10]
  activity at 10 µM: 97.8%
[11]
  activity at 10 µM: 112%
[12]
  activity at 10 µM: 109%
[13]; Hs-578T
  activity at 10 µM: 106%
[14]
  activity at 10 µM: 107%
[15]
  activity at 10 µM: 114%
[16]
  activity at 10 µM: 106%
[17]
  activity at 10 µM: 96%
[18]
  activity at 10 µM: 92.1%

## Cc1nnc(N2CCN(c3ccccc3)CC2)c2ccccc12 [Compound 8g, 1-Methyl-4–(4-phenylpiperazin-1-yl)phthalazine]
[1]
  activity at 10 µM: 110%
[2]
  activity at 10 µM: 75.5%
[3]
  activity at 10 µM: 99.5%
[4]
  activity at 10 µM: 98.5%
[5]
  activity at 10 µM: 112%
[6]
  activity at 10 µM: 94.5%
[7]
  activity at 10 µM: 98.8%
[8]
  activity at 10 µM: 108%
[9]
  activity at 10 µM: 109%
[10]
  activity at 10 µM: 104%
[11]
  activity at 10 µM: 95.9%
[12]
  activity at 10 µM: 97.7%
[13]; Hs-578T
  activity at 10 µM: 105%
[14]
  activity at 10 µM: 109%
[15]
  activity at 10 µM: 127%
[16]
  activity at 10 µM: 103%
[17]
  activity at 10 µM: 98.3%
[18]
  activity at 10 µM: 96.7%

## O=C(Nc1ccccc1)Nc1ccc(Oc2nnc(Cl)c3ccccc23)cc1 [Compound 13a, 1–(4-(4-Chlorophthalazin-1-yloxy)phenyl)-3-phenylurea]
[1]; MOLT-4, 5 log dose
  GI50: 2.6 µM
  IC (TGI): 11.4 µM
[1]; MOLT-4, 5 log dose, 48 h, read-out: LC50 (the source's name)
  CC50: > 25 µM
[2]; BT-549
  GI50: 3.06 µM
[2]; BT-549, read-out: TGI
  IC (TGI): 10.8 µM
[2]
  activity at 10 µM: 47.7%
[2]; BT-549, 5 log dose, 48 h, read-out: LC50 (the source's name)
  CC50: > 25 µM
[3]; MDA-MB-435
  GI50: 7.54 µM
[3]; MDA-MB-435, read-out: TGI
  IC (TGI): > 25 µM
[3]
  activity at 10 µM: 48.6%
[3]; MDA-MB-435, 5 log dose, 48 h, read-out: LC50 (the source's name)
  CC50: > 25 µM
[4]; HCT-15, 5 log dose
  GI50: 3.54 µM
  IC (TGI): 12.9 µM
[4]; HCT-15, 5 log dose, 48 h, read-out: LC50 (the source's name)
  CC50: > 25 µM
[4]
  activity at 10 µM: 36.4%
[5]; 5 log dose
  GI50: 2.19 µM
  IC (TGI): > 25 µM
[5]; [19]
  CC50: > 25 µM
[5]
  activity at 10 µM: 47.3%
[6]; NCI-H522, 5 log dose
  GI50: 2.8 µM
  IC (TGI): 9.68 µM
[6]; NCI-H522, 5 log dose, 48 h, read-out: LC50 (the source's name)
  CC50: > 25 µM
[6]
  activity at 10 µM: 2%
[7]
  activity at 10 µM: 0.47%
[7]; MDA-MB-468, 5 log dose
  GI50: 7.58 µM
  IC (TGI): 7.56 µM
[7]; MDA-MB-468, 5 log dose, 48 h, read-out: LC50 (the source's name)
  CC50: > 25 µM
[8]; UO-31, 5 log dose
  GI50: 3.98 µM
  IC (TGI): 19.6 µM
[8]; UO-31, 5 log dose, 48 h, read-out: LC50 (the source's name)
  CC50: > 25 µM
[8]
  activity at 10 µM: 34.9%
[9]; HCC-2998, 5 log dose
  GI50: 4.2 µM
  IC (TGI): 12.2 µM
[9]; HCC-2998, 5 log dose, 48 h
  LC50 (50% lethal concentration): > 25 µM
[9]
  activity at 10 µM: 52.9%
[10]; OVCAR-4, 5 log dose
  GI50: 1.73 µM
  IC (TGI): 12.2 µM
[10]; OVCAR-4, 5 log dose, 48 h, read-out: LC50 (the source's name)
  CC50: > 25 µM
[10]
  activity at 10 µM: 0.22%
[11]; HOP-92, 5 log dose
  GI50: 3.09 µM
  IC (TGI): 11.3 µM
[11]; HOP-92, 5 log dose, 48 h, read-out: LC50 (the source's name)
  CC50: > 25 µM
[11]
  activity at 10 µM: -7.51%
[12]; COLO 205, 5 log dose
  GI50: 5.24 µM
  IC (TGI): > 25 µM
[12]; COLO 205, 5 log dose, 48 h, read-out: LC50 (the source's name)
  CC50: > 25 µM
[12]
  activity at 10 µM: 35.1%
[13]; Hs-578T
  GI50: 2.12 µM
  activity at 10 µM: 1.19%
[13]; Hs-578T, read-out: TGI
  IC (TGI): 10.4 µM
[13]; HS 578T, 5 log dose, 48 h, read-out: LC50 (the source's name)
  CC50: > 25 µM
[14]; KM12, 5 log dose
  GI50: 5.51 µM
  IC (TGI): > 25 µM
[14]; KM12, 5 log dose, 48 h, read-out: LC50 (the source's name)
  CC50: > 25 µM
[14]
  activity at 10 µM: 43.6%
[15]; MDA-MB-231
  GI50: 4.76 µM
[15]; MDA-MB-231, read-out: TGI
  IC (TGI): 12.3 µM
[15]
  activity at 10 µM: 32.1%
[15]; MDA-MB-231, MDA-MDA 231/ATCC, 5 log dose, 48 h, read-out: LC50 (the source's name)
  CC50: > 25 µM
[16]
  GI50: 3.46 µM
  activity at 10 µM: 32.1%
[16]; [19]
  CC50: 13.4 µM
[16]; read-out: TGI
  IC (TGI): 6.08 µM
[17]; HT29, 5 log dose
  GI50: 5.26 µM
  IC (TGI): > 25 µM
[17]; HT29, 5 log dose, 48 h, read-out: LC50 (the source's name)
  CC50: > 25 µM
[17]
  activity at 10 µM: 23.8%
[18]; MCF7
  GI50: 1.32 µM
[18]; MCF7, read-out: TGI
  IC (TGI): 6.32 µM
[18]
  activity at 10 µM: -4.15%
[18]; MCF7, 5 log dose, 48 h, read-out: LC50 (the source's name)
  CC50: 20.6 µM
